Like-named read-outs stand apart in the source and are kept apart here.
What was measured:
[1] = Kinetics of hydrolysis of butyraldehyde condensation products; assay type: physicochemical
Procedure: Quantitative Measurements of Kinetics of Hydrolysis:
One mM solutions of Mn-15-Ald, Mn-16-Ald and Mn-17-Ald (where Mn-Ald refers to the reaction product with either Mn-15, Mn-16, or Mn-17) were prepared by the following procedure: 1 mM (1 mL) of Mn-15, Mn-16 or Mn-17 were prepared in PBS (pH 7.4) followed by addition of butyraldehyde (14.4 mg, […]). The mixture was rocked gently under room temperature for 10 min and then freeze-dried for 12 hours. Then, the obtained white solid was redissolved in 1 mL water.
The HPLC trace of each butyraldehyde reaction product was measured by Method 25 (Mn-15-Ald) and Method 26 (Mn-16-Ald, Mn-17-Ald). Then, a 37% stock solution of formaldehyde was added to give a final formaldehyde concentration of 200 mM.
The hydrolysis of the hydrazone/oxime is reversible. An excess of formaldehyde was added to trap the liberated nitrogen base and thereby push the hydrolysis reaction to completion, allowing the hydrolysis reaction to be monitored without interference from the reverse reaction. So, the kinetics for hydrolysis of Mn-15-Ald, Mn-16-Ald and Mn-17-Ald follows the rate law.
where Y is the % hydrolysis, t is time, kobs,H is the first-order rate constant, and Ymax is the % hydrolysis at t=∞. Kinetic traces were obtained in triplicate, and half-lives were calculated with equation 20: […]
(§1) The novel Mn-PC2A derivatives (FIG. 1A) were synthesized in 6 steps from the pyclen macrocycle. Hydrazone formation kinetics with butyraldehyde as a model compound were measured by UV spectroscopy at 220 nm, 25° C., pH 7.4, PBS. Hydrazone hydrolysis kinetics were measured by HPLC with UV detection at 220 nm using excess formaldehyde to trap the liberated hydrazine and prevent the reverse reaction. Allysine-modified BSA (BSA-Ald, 17.4 mg/mL, […] aldehyde) as a soluble model protein or BSA (17.3 mg/mL, 16.8 μM aldehyde) and Mn-15 or Mn-17 (50-200 μM) were incubated at 37° C. for 3 hours, and 1/T1 was measured at 1.4 T, 37° C., and plotted vs concentration to obtain relaxivity. The protein bound probe was isolated by ultrafiltration and the relaxivity of the protein-bound fraction measured. All Mn concentrations were measured by ICP-MS. Liver fibrosis was induced in male C57BL/6 mice by oral gavage with CCl4 for 12 weeks, 2-3 times per week, while control mice received vehicle (olive oil). 3D FLASH images (TR/TE/FA=15 ms/2 ms/30°, 0.25 mm^3 spatial resolution) were acquired on a 4.7 T Bruker Biospec prior to and dynamically for 40 min p.i. of 100 μmol/kg Mn-15. Liver to muscle contrast to noise was calculated as CNR=(SILiver−SIMuscle)/SDAir where SI=signal intensity and SD=standard deviation in SI.

[2] = Biodistribution of ^nat/52Mn-based probes in naïve mice; assay type: in vivo, mouse; conditions: 24 h post injection
Procedure: Example 32. Radiolabeling of Compounds 15-18 with ^52Mn and Preparation of ^52/natMn Complex
^52MnCl2 (5 mCi) was received from the cyclotron facility at the Alabama at Birmingham and diluted to 500 μL with 0.1 M HCl. Solution of […] (50 μL, 1.0 mg in 1 mL of 1.5 M NaOAc buffer, pH 4.5) was mixed with 50 μL of ^52MnCl2. The reaction mixture was kept at room temperature for 15 min and diluted with 200 μL of sterile PBS. The injected dose of ^52/natMn complex was obtained by mixing solution of ^52Mn labeled Compound 15-18 with stock solution of ^natMn labeled Compound 15-18 (^natMn final concentration: 30 mM).
Bleomycin-injured mice at 14 days after injury were sedated and then injected with Compound 19, Compound 20, Gd-CHyd (Akam, E. A., et al. Improving the reactivity of hydrazine-bearing MRI probes for in vivo imaging of lung fibrogenesis. Chemical Science 11, 224-231 (2020)) formulated to contain an equal concentration of Eu-DOTA as a non-binding control probe. Animals were then euthanized at 30 minutes after injection. The lungs were harvested separately, along with blood, tail and liver. Each sample was analyzed by ICP-MS for gadolinium and europium content, and the lungs were also assessed for hydroxyproline content. Selectivity is reported as the ratio of Gd to Eu. All animals were dosed via tail vein injection at 100 nmol/g body weight from 30 mM solutions of gadolinium probes with 30 mM Eu-DOTA as determined by ICP-MS. For PET probes, Compounds 1-8 were radiolabeled with either ^68Ga or ^64Cu and the dose was delivered as a bolus injection through tail vein. Animals were euthanized 90 min post injection and their organs and tissues were harvested and counted using a gamma counter. For an imaging study with a PET tracer, animals were injected inside PET/MRI scanner and scanned dynamically for 60 min under anesthesia. The animals were euthanized 90 min post injection and their organs and tissues were counted using a gamma counter. The biodistribution of Mn-15, Mn-16, Mn-17, and Mn-18 was determined by injecting a mixture of ^52/nat complex into naïve mice and activity in each tissue were measured 24 hours post injection.

[3] = Reaction rates with butyraldehyde by UV-visible measurements (Method D); assay type: physicochemical; conditions: for k (second order / condensation rate constant): Method d: butyraldehyde 1 mM, Mn complex 0.04-0.10 mM, 25° C., PBS, absorbance 220 nm
Procedure: Method D: Reaction Rates with UV-Visible Measurements.
The molar extinction coefficient at 220 nm (ε220) of Mn-15, Mn-16 and Mn-17 was calculated using Beer-Lambert Law: A220=ε220Cl; where A220 is the absorbance at wavelength 220 nm, C is the concentration (M), and l is the cell path length (cm).
The kinetics for reactions of Mn-15, Mn-16 and Mn-17 with butyraldehyde were monitored spectrophotometrically by measuring the change in absorbance at 220 nm. All reactions were carried out at 25° C. in PBS. In each experiment [butyraldehyde]=1 mM and the concentrations of Mn-complex, 0.04 mM, 0.06 mM, 0.08 mM, and 0.10 mM, were varied to estimate the rate law.
At the beginning of the reaction (t=0), the concentration of the starting Mn complex is a0 and the concentration of the aldehyde condensation product is zero. After time t the concentration of the product is x, and the concentration of remaining Mn complex starting material is a0-x. For a first-order reaction
where I is the constant of integration and kobs is the observed rate constant. The rate law and a corresponding second order rate constant k were estimated by plotting reaction velocity as a function of Mn—N(where Mn—N refers to Mn-15, Mn-16, or Mn-17) concentration.
The concentration of Mn—N-Ald (where Mn-Ald refers to the reaction product with either Mn-15, Mn-16, or Mn-17) can be estimated by the following equations, where A0 is the absorbance of Mn—N and A is the absorbance of reaction mixture after time t,
as §1

[4] = butyraldehyde reaction product, formaldehyde 200 mM as trap

Row | Structure (SMILES) | hydrolysis rate constant [1] [s⁻¹] | times higher hydrolysis rate constant compared to Mn-17 [1] [fold] | hydrolysis rate constant [1, 4] | Biodistribution, Blood [2] [% ID/g] | Biodistribution, Bone [2] [% ID/g] | Biodistribution, Brain [2] [% ID/g] | Biodistribution, Heart [2] [% ID/g] | Biodistribution, Intestine [2] [% ID/g] | Biodistribution, Kidney [2] [% ID/g] | Biodistribution, Liver [2] [% ID/g] | Biodistribution, Lung [2] [% ID/g] | Biodistribution, Muscle [2] [% ID/g] | Biodistribution, Skin [2] [% ID/g] | Biodistribution, Spleen [2] [% ID/g] | Biodistribution, Stomach [2] [% ID/g] | fold higher condensation (hydrazone formation) rate constant compared to Mn-17 [3] [fold] | k (second order / condensation rate constant) [3] [M⁻¹ s⁻¹]
1 | NNC(CCC(=O)NCCCN1CCN(CC(=O)[O-])Cc2cccc(n2)CN(CC(=O)[O-])CC1)C(=O)O.[Mn+2] (centres unmarked) [Mn-15] | 0.00103 | 2 | 1.03 ± 0.15 ×10^−3 s^−1 | 0.0018 | 0.0385 | 0.0156 | 0.0532 | 0.0665 | 0.7021 | 0.2186 | 0.1312 | 0.0154 | 0.0719 | 0.0843 | 0.0759 | 3 | 12.1
2 | NOC(CCC(=O)NCCCN1CCN(CC(=O)[O-])Cc2cccc(n2)CN(CC(=O)[O-])CC1)C(=O)O.[Mn+2] (centres unmarked) [Mn-16] | 7.9e-07 | – | 0.79 ± 0.03 ×10^−6 s^−1 | 0.0051 | 0.1378 | 0.0275 | 0.1579 | 0.1330 | 0.9664 | 0.3950 | 0.4469 | 0.0669 | 0.9457 | 0.1978 | 0.1638 | – | 2.5
3 | NNCC(=O)NCCCN1CCN(CC(=O)[O-])Cc2cccc(n2)CN(CC(=O)[O-])CC1.[Mn+2] [Mn-17] | 0.00041 | – | 0.41 ± 0.01 ×10^−3 s^−1 | 0.0020 | 0.0414 | 0.0170 | 0.0675 | 0.0556 | 0.5387 | 0.2125 | 0.1954 | 0.0196 | 0.0925 | 0.0965 | 0.0681 | – | 4.6
4 | CN(C)C(CCC(=O)NCCCN1CCN(CC(=O)[O-])Cc2cccc(n2)CN(CC(=O)[O-])CC1)C(=O)O.[Mn+2] (centres unmarked) [Mn-18] | – | – | – | 0.0013 | 0.0227 | 0.0145 | 0.0364 | 0.0355 | 0.5290 | 0.1833 | 0.0599 | 0.0132 | 0.0243 | 0.0616 | 0.0477 | – | –

Reference: patent US20240285808A1, “MOLECULAR PROBES FOR IN VIVO DETECTION OF ALDEHYDES” (The General Hospital Corporation, priority 2021, published 2024)
